As usually defined, the pIC50 is the IC50 on a negative log10 scale, so that one unit is a factor of ten.

This note sets out measurements from US20240059689A1, “PURINE DERIVATIVES AS ANTICANCER AGENTS” (Tango Therapeutics, Inc., priority 2021, published 2024).

Each structure is given as a SMILES string. pIC50: −log10 of the molar value. Read-outs that look alike come from different tables or passages of the source.

One assay deals with USP1-UAF1 (Homo sapiens, UniProt O94782). The assay is described as follows: Ubiquitin Rhodamine assay of USP1-UAF1 activity. In kind it is biochemical. The method, then: Certain compounds of the disclosure were assessed for USP1-UAF1 activity in a Ubiquitin Rhodamine assay as described in Biology Example 1.
Sequence of USP1-UAF1 (O94782 whole entry): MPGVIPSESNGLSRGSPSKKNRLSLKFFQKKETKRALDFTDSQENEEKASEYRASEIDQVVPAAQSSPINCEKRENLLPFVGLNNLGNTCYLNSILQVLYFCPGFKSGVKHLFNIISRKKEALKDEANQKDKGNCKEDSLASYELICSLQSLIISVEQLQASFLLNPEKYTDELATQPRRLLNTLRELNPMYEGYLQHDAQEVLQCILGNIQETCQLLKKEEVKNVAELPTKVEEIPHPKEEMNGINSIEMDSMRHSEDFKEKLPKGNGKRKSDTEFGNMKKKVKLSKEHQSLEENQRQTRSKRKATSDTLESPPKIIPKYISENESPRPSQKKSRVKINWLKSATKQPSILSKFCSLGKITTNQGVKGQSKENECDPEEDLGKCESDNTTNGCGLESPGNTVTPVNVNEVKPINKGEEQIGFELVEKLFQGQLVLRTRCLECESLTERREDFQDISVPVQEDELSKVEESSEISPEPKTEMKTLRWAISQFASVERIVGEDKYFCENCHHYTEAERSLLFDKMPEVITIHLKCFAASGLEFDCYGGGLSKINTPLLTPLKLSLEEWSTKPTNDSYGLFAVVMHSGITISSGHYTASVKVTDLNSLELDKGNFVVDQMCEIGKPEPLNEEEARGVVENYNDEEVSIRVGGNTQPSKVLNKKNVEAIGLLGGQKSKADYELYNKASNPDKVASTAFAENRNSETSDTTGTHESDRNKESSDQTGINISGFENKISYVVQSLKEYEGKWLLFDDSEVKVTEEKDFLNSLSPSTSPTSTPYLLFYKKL
Sequence of USP1-UAF1 (Q8TAF3 whole entry partner): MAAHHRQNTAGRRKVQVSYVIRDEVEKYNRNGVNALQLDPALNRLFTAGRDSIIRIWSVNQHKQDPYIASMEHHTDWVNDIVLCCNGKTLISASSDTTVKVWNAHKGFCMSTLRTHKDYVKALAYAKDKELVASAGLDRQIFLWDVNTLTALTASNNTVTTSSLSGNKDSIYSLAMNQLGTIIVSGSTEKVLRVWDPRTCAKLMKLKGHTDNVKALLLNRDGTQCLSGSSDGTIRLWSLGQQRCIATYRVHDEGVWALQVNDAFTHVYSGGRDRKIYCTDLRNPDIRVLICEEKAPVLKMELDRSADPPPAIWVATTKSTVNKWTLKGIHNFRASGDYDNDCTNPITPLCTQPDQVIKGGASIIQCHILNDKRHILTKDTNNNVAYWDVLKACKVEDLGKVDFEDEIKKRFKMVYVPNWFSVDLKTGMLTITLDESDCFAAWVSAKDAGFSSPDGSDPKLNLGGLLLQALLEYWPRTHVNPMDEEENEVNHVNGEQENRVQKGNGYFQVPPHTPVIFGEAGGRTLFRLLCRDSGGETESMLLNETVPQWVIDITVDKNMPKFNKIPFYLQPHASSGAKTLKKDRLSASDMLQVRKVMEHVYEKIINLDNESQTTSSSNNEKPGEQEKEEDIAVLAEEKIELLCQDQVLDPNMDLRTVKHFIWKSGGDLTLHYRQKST
In the next assay the test system is HCC1954. The assay is described as follows: Viability assay, BRCA1 WT cell line HCC1954. In kind it is cell-based. The following applies: read-out: HCC1954 rel IC50. From the text: (§1) Table 1 also indicates IC50 values in a viability assay for a non-isogenic pair of BRCA1 mutant (column 5-MDA-MB-436) and BRCA1 WT (column 6—HCC1954) cell lines. These values indicate the effect of treatment with compound on cell survival.

The next assay has as its system MDA-MB-436. The assay is described as follows: Viability assay, BRCA1 mutant cell line MDA-MB-436. The note with it: BRCA1 mutant MDA-MB-436, read-out: MDA-MB-436 rel IC50. In kind it is cell-based.
Source text: as §1

The mark [1] stands for this setting: Homo sapiens, HCC1954, viability.
Where [2] appears, read: Homo sapiens, MDA-MB-436, viability.

For `CC(C)c1ccccc1-c1ncc2c(n1)n(Cc1ccc(N3CCC(C(F)(F)F)C3)cc1)c(=N)n2C` (single isomer, unassigned) [Example A-10d, 2-(2-isopropylphenyl)-7-methyl-9-(4-(3-(trifluoromethyl)pyrrolidin-1-yl)benzyl)-7,9-dihydro-8H-purin-8-imine], the pIC50 against USP1-UAF1 was 5.00 to 7.00.
On to `CC(C)c1ccccc1-c1ncc2c(n1)n(Cc1ccc(N3CCC(C(F)(F)F)C3)cc1)c(=N)n2C` (single isomer, unassigned) [Example A-10e, 2-(2-isopropylphenyl)-7-methyl-9-(4-(3-(trifluoromethyl)pyrrolidin-1-yl)benzyl)-7,9-dihydro-8H-purin-8-imine], for which the pIC50 against USP1-UAF1 is 5.00 to 7.00.
Consider `Cc1nc(-c2ccccc2)nc2c1n(C)c(=N)n2Cc1ccc(-c2nc(C(F)(F)F)cn2C)cc1` (single isomer, unassigned) [Example A-15b, 6,7-dimethyl-9-(4-(1-methyl-4-(trifluoromethyl)-1H-imidazol-2-yl)benzyl)-2-phenyl-7,9-dihydro-8H-purin-8-imine], for which the figures for the pIC50 with HCC1954 (setting [1]), against USP1-UAF1 and in the assay on MDA-MB-436 (setting [2]) were 5.00 to 6.60, 5.00 to 7.00 and 5.00 to 6.60, respectively.
Consider `CC(C)c1ccccc1-c1ncc2c(n1)n(C(C)C1CCN(c3nc(Cl)cn3C)CC1)c(=N)n2C` (single isomer, unassigned) [Example A-26d, 9-(1-(1-(4-chloro-1-methyl-1H-imidazol-2-yl)piperidin-4-yl)ethyl)-2-(2-isopropylphenyl)-7-methyl-7,9-dihydro-8H-purin-8-imine], for which the pIC50 in the assay on HCC1954 (viability) was no more than 5.00; against USP1-UAF1, 5.00 to 7.00; in the assay with MDA-MB-436 (viability), 5.00 to 6.60.
Consider `CC(C)c1ccccc1-c1ncc2c(n1)n(Cc1ccc(-c3nccn3C)cc1)c(=N)n2C` [Example A-2, 2-(2-isopropylphenyl)-7-methyl-9-(4-(1-methyl-1H-imidazol-2-yl)benzyl)-7H-purin-8(9H)-imine], for which the pIC50 in the assay with HCC1954 (setting [1]) was no more than 5.00; on USP1-UAF1, 5.00 to 7.00; in the assay with MDA-MB-436 (setting [2]), 5.00 to 6.60.
Turning to `CC(C)c1ccccc1-c1ncc2c(n1)n(Cc1ccc(-c3ncc[nH]3)cc1)c(=N)n2C` [Example A-4, 9-(4-(1H-imidazol-2-yl)benzyl)-2-(2-isopropylphenyl)-7-methyl-7H-purin-8(9H)-imine], on USP1-UAF1, the pIC50 is 5.00 to 7.00.
`CC(C)c1ccccc1-c1ncc2c(n1)n(Cc1ccc(-c3cc(Cl)cn3C)cc1)c(=N)n2C` [Example A-7, 9-(4-(4-chloro-1-methyl-1H-pyrrol-2-yl)benzyl)-2-(2-isopropylphenyl)-7-methyl-7,9-dihydro-8H-purin-8-imine]: the pIC50 in the assay with HCC1954 (setting [1]) is 5.00 to 6.60; on USP1-UAF1, 5.00 to 7.00; in the assay with MDA-MB-436 (setting [2]), 5.00 to 6.60.
As for `COc1nc(-c2ccccc2C(C)C)nc2c1n(C)c(=N)n2Cc1ccc(-c2nc(C(F)(F)F)cn2C)cc1` [Example A-20, 2-(2-isopropylphenyl)-6-methoxy-7-methyl-9-(4-(1-methyl-4-(trifluoromethyl)-1H-imidazol-2-yl)benzyl)-7,9-dihydro-8H-purin-8-imine], the results for the pIC50 in the assay with HCC1954 (setting [1]), on USP1-UAF1 and in the assay on MDA-MB-436 (setting [2]) were 5.00 to 6.60, 5.00 to 7.00 and 5.00 to 6.60, respectively.
Take `CC(C)c1ccccc1-c1nc(O)c2c(n1)n(Cc1ccc(-c3nc(C(F)(F)F)cn3C)cc1)c(=N)n2C` [Example A-32, 8-imino-2-(2-isopropylphenyl)-7-methyl-9-(4-(1-methyl-4-(trifluoromethyl)-1H-imidazol-2-yl)benzyl)-8,9-dihydro-7H-purin-6-ol]: the pIC50 in the assay on HCC1954 (setting [1]) is no more than 5.00; against USP1-UAF1, 5.00 to 7.00; in the assay on MDA-MB-436 (setting [2]), 5.00 to 6.60.
In the case of `CNC(=O)c1nc(-c2ccccc2C(C)C)nc2c1n(C)c(=N)n2Cc1ccc(-c2nc(C(F)(F)F)cn2C)cc1` [Example A-39, 8-imino-2-(2-isopropylphenyl)-N, 7-dimethyl-9-(4-(1-methyl-4-(trifluoromethyl)-1H-imidazol-2-yl)benzyl)-8,9-dihydro-7H-purine-6-carboxamide], the pIC50 in the assay on HCC1954 (setting [1]) was no more than 5.00; at USP1-UAF1, 5.00 to 7.00; in the assay with MDA-MB-436 (setting [2]), 5.00 to 6.60.
Consider `CC(C)c1ccccc1-c1nc(C(=O)N(C)C)c2c(n1)n(Cc1ccc(-c3nc(C(F)(F)F)cn3C)cc1)c(=N)n2C` [Example A-40, 8-imino-2-(2-isopropylphenyl)-N,N, 7-trimethyl-9-(4-(1-methyl-4-(trifluoromethyl)-1H-imidazol-2-yl)benzyl)-8,9-dihydro-7H-purine-6-carboxamide], for which the pIC50 in the assay on HCC1954 (setting [1]) is no more than 5.00; on USP1-UAF1, 5.00 to 7.00; in the assay with MDA-MB-436 (setting [2]) it was 5.00 to 6.60.
The matching figures for `CC#Cc1nc(-c2ccccc2Cl)nc2c1n(C)c(=N)n2Cc1ccc(-c2nc(Cl)cn2C)cc1` [Example A-45, 9-(4-(4-chloro-1-methyl-1H-imidazol-2-yl)benzyl)-2-(2-chlorophenyl)-7-methyl-6-(prop-1-yn-1-yl)-7,9-dihydro-8H-purin-8-imine]: 5.00 to 6.60, 5.00 to 7.00 and 5.00 to 6.60.
Consider `Cn1cc(Cl)nc1-c1ccc(Cn2c(=N)n(C)c3c(C#CC4CC4)nc(-c4ccccc4Cl)nc32)cc1` [Example A-46, 9-(4-(4-chloro-1-methyl-1H-imidazol-2-yl)benzyl)-2-(2-chlorophenyl)-6-(cyclopropylethynyl)-7-methyl-7,9-dihydro-8H-purin-8-imine], for which the pIC50 with HCC1954 (setting [1]) and in the assay on MDA-MB-436 (setting [2]) was 5.00 to 6.60 throughout.
As to `Cc1cccc(Cl)c1-c1ncc2c(n1)n(Cc1ccc(-c3nc(C(F)(F)F)cn3C)cc1)c(=N)n2C` [Example B-7, 2-(2-chloro-6-methylphenyl)-7-methyl-9-(4-(1-methyl-4-(trifluoromethyl)-1H-imidazol-2-yl)benzyl)-7,9-dihydro-8H-purin-8-imine], on USP1-UAF1, the pIC50 was 7.00 to 7.52.
`CC(C)c1ccccc1-c1ncc2c(n1)n(CC1CCC(c3nc(C(F)(F)F)cn3C)CC1)c(=N)n2C` (centres unmarked) [Example T-006]: the pIC50 with HCC1954 (setting [1]) was 5.00 to 6.60; on USP1-UAF1, 5.00 to 7.00; in the assay on MDA-MB-436 (setting [2]), 5.00 to 6.60.
Turning to `COc1ncnc(C2CC2)c1-c1ncc2c(n1)n(Cc1ccc(-c3nc(C(F)(F)F)cn3C)s1)c(=N)n2C` [Example T-007], the negative-log IC50 (pIC50) with HCC1954 (setting [1]) was no more than 5.00; against USP1-UAF1 it was 5.00 to 7.00; with MDA-MB-436 (setting [2]) it was 5.00 to 6.60.
On the same counts, the results for `Cc1cnn(C)c1-c1ncc2c(n1)n(Cc1ccc(-c3nc(C(F)(F)F)cn3C)cc1)c(=N)n2C` [Example T-012] are no more than 5.00, 5.00 to 7.00 and 5.00 to 6.60.
With `COc1ncnc(C2CC2)c1-c1ncc2c(n1)n(Cc1cc(-c3nc(C(F)(F)F)cn3C)cs1)c(=N)n2C` [Example T-014], the results for the pIC50 in the assay with HCC1954 (setting [1]), against USP1-UAF1 and in the assay on MDA-MB-436 (setting [2]) were no more than 5.00, 5.00 to 7.00 and 5.00 to 6.60, respectively.
For `Cn1cc(C(F)(F)F)nc1-c1ccc(Cn2c(=N)n(C)c3cnc(-c4c(C5CC5)cnn4C)nc32)cc1` [Example T-017], the pIC50 was no more than 5.00 in the assay on HCC1954 (setting [1]), 5.00 to 7.00 on USP1-UAF1 and 5.00 to 6.60 in the assay on MDA-MB-436 (setting [2]).
The matching figures for `Cn1cc(C(F)(F)F)nc1-c1ccc(Cn2c(=N)n(C)c3cnc(-c4c(C#N)cnn4C)nc32)cc1` [Example T-022]: no more than 5.00, 5.00 to 7.00 and 5.00 to 6.60.
In turn, `CC(C)c1ccccc1-c1ncc2c(n1)n(Cc1ccc(N3C[C@@H](C(F)(F)F)C[C@H]3C)cc1)c(=N)n2C` [Example T-024] gave a pIC50 on USP1-UAF1 of 5.00 to 7.00.
For the compound `Cn1cc(C(F)(F)F)nc1-c1ccc(Cn2c(=N)n(C)c3cnc(-c4cccnc4C(F)(F)F)nc32)cc1` [Example T-025], the results for the pIC50 in the assay with HCC1954 (setting [1]), against USP1-UAF1 and in the assay with MDA-MB-436 (setting [2]) were no more than 5.00, 5.00 to 7.00 and 5.00 to 6.60, respectively.
For the compound `COc1ncnc(C2CC2)c1-c1ncc2c(n1)n(Cc1cc(C)c(-c3nc(C(F)(F)F)cn3C)cc1C)c(=N)n2C` [Example T-026], the values for the pIC50 with HCC1954 (setting [1]), against USP1-UAF1 and in the assay on MDA-MB-436 (setting [2]) were no more than 5.00, 5.00 to 7.00 and 5.00 to 6.60, respectively.
With `COc1nccc(C)c1-c1ncc2c(n1)n(Cc1ccc(-c3nc(C(F)(F)F)cn3C)cc1)c(=N)n2C` [Example T-028], the results for the pIC50 in the assay with HCC1954 (setting [1]), against USP1-UAF1 and in the assay with MDA-MB-436 (setting [2]) were no more than 5.00, 5.00 to 7.00 and 5.00 to 6.60, respectively.
Consider `Cn1cc(C(F)(F)F)nc1-c1ccc(Cn2c(=N)n(C)c3cnc(-c4cccnc4C4(C#N)CC4)nc32)cc1` [Example T-041], for which the pIC50 was no more than 5.00 in the assay with HCC1954 (setting [1]), 5.00 to 7.00 at USP1-UAF1 and 5.00 to 6.60 in the assay on MDA-MB-436 (setting [2]).
Consider `Cn1cc(C(F)(F)F)nc1-c1ccc(Cn2c(=N)n(C)c3cnc(-c4cccnc4CC(F)(F)F)nc32)cc1` [Example T-042], for which the values for the pIC50 in the assay on HCC1954 (setting [1]), against USP1-UAF1 and with MDA-MB-436 (setting [2]) were no more than 5.00, 5.00 to 7.00 and 5.00 to 6.60, respectively.
Turning to `COc1ncccc1-c1ncc2c(n1)n(C1(c3ccc(-c4nc(C(F)(F)F)cn4C)cc3)CC1)c(=N)n2C` [Example T-043], the pIC50 in the assay on HCC1954 (setting [1]) was no more than 5.00; at USP1-UAF1 it was 5.00 to 7.00; in the assay with MDA-MB-436 (setting [2]) it was 5.00 to 6.60.
As to `Cn1cc(C(F)(F)F)nc1-c1cc(F)c(Cn2c(=N)n(C)c3cnc(-c4ccccc4C(F)(F)F)nc32)c(F)c1` [Example T-046], the pIC50 was no more than 5.00 in the assay on HCC1954 (setting [1]), 5.00 to 7.00 against USP1-UAF1 and 5.00 to 6.60 with MDA-MB-436 (setting [2]).
Turning to `COn1cc(C(F)(F)F)nc1-c1ccc(Cn2c(=N)n(C)c3cnc(-c4ccccc4C(F)(F)F)nc32)nc1` [Example T-048], the pIC50 with HCC1954 (setting [1]) was no more than 5.00; on USP1-UAF1 it was 5.00 to 7.00; with MDA-MB-436 (setting [2]), 5.00 to 6.60.
Regarding `Cn1cc(C(F)(F)F)nc1-c1ccc(Cn2c(=N)n(C)c3cnc(-c4cccnc4C#N)nc32)cc1` [Example T-050], the pIC50 in the assay on HCC1954 (setting [1]) was no more than 5.00; against USP1-UAF1 it was 5.00 to 7.00; with MDA-MB-436 (setting [2]) it was no more than 5.00.
In turn, `CC(C)c1ccccc1-c1ncc2c(n1)n(Cc1ccc(-c3cccn3C)cc1)c(=N)n2C` [Example T-088] had a pIC50 at USP1-UAF1 of 5.00 to 7.00.
